Assay results as given in patent US20020035061A1, “COMPOSITIONS AND METHODS FOR TREATING INFECTIONS USING CATIONIC PEPTIDES ALONE OR IN COMBINATION WITH ANTIBIOTICS” (priority 1996, published 2002).

Legend:
S. pyogenes = experiment: Agarose dilution assay (MIC); assay type: cell-based; details: S. pyogenes strain SPY006
S. aureus = experiment: microbe, parasite or virus in culture; assay type: cell-based

Sequence	MIC (S. pyogenes) [µg/mL]	Ciprofloxacin MIC + Peptide (S. aureus; S. aureus SA25) [µg/mL]	Peptide MIC + Ciprofloxacin (S. aureus; S. aureus SA25) [µg/mL]	Peptide MIC Alone (S. aureus; S. aureus SA25, Ciprofloxacin section) [µg/mL]	acquired resistance of S. aureus to piperacillin and ciprofloxacin (S. aureus; antibiotic agents combined with peptide)	FIC (S. aureus; peptide + Ciprofloxacin, S. aureus SA25)
ILRWPWWPWRRK [MBI 11B7CN]	16	–	–	–	–	–
KKWWRRALQGLKTAGPAIQSVLNK [MBI 21A2]	–	1	1	16	overcome	0.56
